Drawing on the NIST ThermoML archive (doi:10.1016/j.jct.2009.08.004), this text covers speed of sound for 1 compound.

± gives the expanded uncertainty stated by the source.

The series is described as follows: mn = molality of the nth substance listed, in mol/kg. As to conditions: 298.15 K, 101 kPa, Liquid, Pulse-echo method.

As a reminder, the speed of sound is the propagation velocity of pressure waves in the medium. As to `NCC(=O)N[C@@H](CO)C(=O)NCC(=O)O` [glycyl-L-serylglycine] + O, the speed of sound came out at 1499.5 ± 0.77 m/s (m1 = 0.02692); 1500.6 ± 0.77 m/s (m1 = 0.03696); 1501.3 ± 0.77 m/s (m1 = 0.04335); 1502 ± 0.77 m/s (m1 = 0.05037); 1503.2 ± 0.77 m/s (m1 = 0.06228).
